According to patent publication US9072729B2, “Method for treating fibrosis and cancer with imidazolium and imidazolinium compounds” (Agency for Science, Technology and Research, priority 2008, dated 2015):

Experiments:
[1] = test system: p53 signaling pathway-associated gene expression in HLE cells; experiment: Real-time PCR array of p53 signaling pathway-associated genes; format: cell-based, human; settings: 48 h; for increase of ATM gene expression vs control: IBN-19 90 uM, IBN-24 90 uM, IBN-25 40 uM
Protocol: FIG. 42. Real-Time PCR array analysis of p53 signaling pathway-associated gene expression. (A) Anti-apoptotic genes. (B) Growth inhibition gene SESN2. (C) Cell cycle check point genes. (D) Cell proliferation genes. (E) DNA repair gene ATM. The relative level of gene expression was normalized with housekeeping gene GAPDH. Values are expressed as mean±standard deviation.
Cells were seeded at a density of 4×10^5 cells per dish in 10 cm dishes. Next day, the cells were exposed to 90 uM of IBN-19, 90 uM of IBN-24, 40 uM of IBN-25 and 0.045% of DMSO (Dimethyl Sulphoxide) as the control. After 48 hrs, total RNAs were extracted from the cells using Nucleospin RNA II kit as per the manufacturer's istructions. RNA quality and yield were evaluated after spectrophotometer measurements.
The human apoptosis PCR array (RT^2 Profiler) was used to analyze mRNA levels of 84 key genes involved in apoptosis, in a 96-well format, according to the manufacturer's instructions (Super Array Bioscience). First-strand cDNA was synthesized with 1 μg of RNA by using a PCR array first strand-synthesis kit (C-03; Super array Bioscience). This kit uses reverse transcriptase (Power Script; Super array Bioscience) and a combination of random primers and oligo dT primers. The total volume of the reaction was 20 μL diluted to 100 μL. PCR reactions were performed using real-time PCR (79s00HT 96-well block with RT^2 Real-Time SYBR Green PCR master mix PA-012; Applied Biosystems Instruments 7500). The total volume of the PCR reaction was 25 μl. An equivalent of […] of RNA was applied to the PCR reaction. The thermocycler parameters were 95° C. for 10 minutes, followed by 40 cycles of 95° C. for 15 seconds and 60° C. for 1 minute. Relative changes in gene expression were calculated using the ΔΔCt (cycle threshold) method. An average of the number of cycles of the five housekeeping genes, GAPDH, Actin-β, β2m, Hprt1, and Rpl13d, was used to normalize the expression between samples. The expression data are presented as fold regulation. GAPDH gene expression levels were utilized as an internal control to normalize the data. Reported fold changes in expression are the ratios of treatment over control values.
To obtain more information on how the IMSs influence other gene expression in the HLE cells, 84 genes related to p53 signal transduction were profiled by using the RT^2 Profiler array (Super Array Bioscience) (FIG. 42A, B, C, D, E). The array includes keys genes relevant to p53, apoptosis, cell cycle, cell growth, proliferation, differentiation, and DNA repair.

[2] = test system: caspase 3, caspase 9 and PARP; experiment: Western blot of caspase-3, caspase-9 and PARP cleavage in HLE; format: cell-based, human; settings: 72 h
Protocol: FIG. 38. IMSs, induce cleavage of caspase-3, caspase-9 and PARP. Western blot analysis for the effect of IBN 15, IBM 19, IBN 24, IBM 25, IBN 32 on the cleavage of caspase-3, Caspase-9 and PARP in HLE cells after 72 h exposure to indicated doses of IMSs.
The HLE cells were seeded at a density of 4×10^5 in 10 cm dish. After 24 h incubation, the cells were replaced with fresh 10% DMEM medium and then treated with 60 μM of IBN-15, 90 μM of IBN-19, 90 μM of IBN-24, 30 μM of IBN-25 and 20 μM of IBN 32 and 0.045% DMSO as control for 72 h. Whole cell lysates were prepared on day 3 with lysis buffer [125 mM Tris (pH 7.4), 2% Sodium dodecyl sulfate, 10% glycerol, 6M urea and a protease inhibitor cocktail (Sigma) and 0.02% Bromophenol blue]. The lysates were sonicated for 30 seconds and then heated for 5 mins at boiling temperature. The lysates were centrifuged at 13000 rpm for 10 mins and the protein concentration of each sample was estimated using the BCA protein assay. The lysates was then mixed with 5% 2-mercaptoethanol and stored at −80 C. For Western blotting, samples containing 50 μg of total cell lysate were loaded onto a SDS-PAGE and subjected to electrophoresis. Proteins were transferred to a nitrocellulose membrane and then blocked with 5% non-fat dry milk in Tris buffer saline containing 0.1% Tween 20 for 60 min at 37 C. The membranes were probed with a primary antibody overnight at 4 C in TEST containing 5% Bovine serum albumin. Then the membrane was incubated with horseradish peroxidase (HRP)-conjugated anti-rabbit or anti-mouse secondary antibodies (GE Health care, Chalfont St Giles, UK). Detection was performed with enhanced chemiluminescence (ECL) reagent (Amersham Arlington Heights, Ill.) according to the manufacturer's protocol. Rabbit polyclonal Phospho-p53 (Ser15, 20, 46, 392), anti-caspase-9, anti-caspase-3, anti-PARP antibodies were purchased from Cell Signaling Technology, Inc. (Beverly, Mass., USA). Antibodies against p53 and p21 were purchased from Santa Cruz Biotechnology (Santa Cruz, Calif., USA).

TGF-β1 = experiment: Real-time RT-PCR of TGF-β1 mRNA in HSC T6 cells; format: cell-based, rat; settings: 48 h
Protocol: FIG. 9. DBZIM and TDBZIM suppressed TGF-β1 mRNA. HSC T6 cells were incubated with (a) DBZIM (1, 10, 100 and 300 μM) and (b) TDBZIM (1, 10 and 100 μM) for 48 h for the dosage-dependent study, and (c) with DBZIM (100 μM) and TDBZIM (100 μM) for 8, 24 and 48 h for the time-dependent study. The expression level of TGF-β1 mRNA was quantified with real-time RT-PCR. The data were presented as mean and SEM, N=6, *^aP<0.05, *^bP<0.01, *^cP<0.005, when compared to vehicle control.
Total RNA was isolated using NucleoSpin RNAII isolation kit (Nacherey & Nagel, Germany), and quantified by ND-100 spectrophotometer (Nanodrop Technologies, DE, USA). The details of real-time RT-PCR were reported elsewhere (Zhang et al. 2006). Briefly, it was a two-step real-time RT-PCR using Taqman chemistry. Total RNA was first reverse transcribed to cDNA, and real-time PCR was run and detected in ABI 7500 Fast Real-Time PCR System (Applied Biosystems, CA, USA). Primers and probes for rat GFAP, SMAA, collagen Ia1, fibronectin, TGF-β1, TGF-β receptor I (TGFβ RI) and IL-6 were ordered from Taqman's assay-on-demand database. Rat β-actin was used as normalization gene, and its expression level was constant (CT difference was <±0.5) throughout the experimental settings in this study. Relative quantification of target mRNA was calculated using comparative threshold cycle method (ΔΔCT) as described in User Bulletin #2 (ABI Prism 7700 Sequence Detection System). Relative quantification was given by 2^−ΔΔCT to express the up-regulation or down regulation of the target gene under the treatments compared to the control.

## CC(=O)Oc1ccc(C[n+]2ccn(Cc3ccccc3)c2C)cc1.[Cl-] [IBN-19, 1-benzyl-3-(4-acetate-benzyl)-2-methyl-imidazolium chloride]
[1]
  SESN2 gene expression: markedly induced
  increase of ATM gene expression vs control: 36 folds
[2]
  activation and cleavage of caspase 3, caspase 9 and PARP: induced significant activation and cleavage

## 1,3,5-tris(4-methyl-imidazolium)-linked cyclophane.3Br [TDBZIM]
TGF-β1; regardless of dosage (1-100 μM)
  inhibition of TGF-β1 mRNA: ~23%

## Cc1ccc(C[n+]2ccn(Cc3ccccc3)c2)cc1.[Cl-] [IBN-24, 1-benzyl-3-(4-methylbenzyl)-imidazolium chloride]
[1]
  anti-apoptotic gene BCl-2 expression: significantly down regulated
  cell proliferation genes (Mcl1, Egr1, Foxo3, Jun, Mdm4, Nf1, Prm1D, Sesn1, E2f11, Prkca, Brca1): significantly down regulated
  increase of ATM gene expression vs control: 4.6 folds
[2]
  activation and cleavage of caspase 3, caspase 9 and PARP: induced significant activation and cleavage

## [Br-].c1ccc(Cn2cc[n+](Cc3ccccc3)c2)cc1 [DBZIM, 1,3-bisbenzylimidazolium bromide]
TGF-β1; 100 μM
  suppression of TGF-β1 mRNA: 28%
TGF-β1; 300 μM
  suppression of TGF-β1 mRNA: 33%
